Values after ≈ are worked out from the molar mass of the structure shown. Marks after values point to notes of the source that are not given here.
Assays:
[1] = test system: NCI-H460 (non-small cell lung carcinoma cell); assay: MTT antiproliferative assay (cell growth %, GI50), NCI-H460; format: cell-based; settings: for activity at 4000 µg/mL / activity at 20000 µg/mL / GI50: Homo sapiens, NCI-H460; for activity at 4000 µg/mL: 4 mg/ml; for activity at 4000 µg/mL / activity at 20000 µg/mL: 48 hours, MTT; for activity at 20000 µg/mL: 20 mg/ml; for SI NCI-H460: GI50 MRC-5 / GI50 NCI-H460; for GI50: mean±SD, read-out: GI50 NCI-H460
Protocol: (§1) Antiproliferative activities of the compounds of this invention were evaluated substantially according to the method as described in Tseng, C. […] The cells were treated with the test compounds, i.e., the compounds of this invention (in dimethylsulfoxide (DMSO)), or DMSO for 48 hours.
(§2) Before and after the treatment with the test compounds or DMSO, 3-(4,5-dimethylthiazol-2-yl)-2,5-diphenyltetrazolium bromide (MTT, 2 mg/mL, 100 μL) was added to each of the cultures, followed by cultivation for 2 hours. The resultant formazan was dissolved by the addition of DMSO. Absorbance at 570 nm (OD570) was measured using a microtiter plate reader (Dynex MRX-II).
(§3) Determination of GI50 was conducted thrice for each test compound. GI50 is expressed as mean±SD.

tubulin = settings: Huang Y. T. et al. (2005); cited from earlier work
[2] = Determination of solubility in water; format: physicochemical; settings: 25±0.1° C., stirred overnight, UV-VIS; for solubility: water, 25 °C, thermodynamic from solid
Protocol: Determination of solubility in water was conducted substantially according to the method as described in Vougogiannopoulou, K. et al. (2008), J. Med. Chem., 51:6421-6431. An excess amount of the respective test compound was added into water, followed by sonication for 5 minutes. The resultant mixture was stirred at ambient temperature (25±0.1° C.) overnight. Centrifugation at 4000 rpm and 25° C. was conducted for 5 minutes. Absorbance of the sample of the respective test compound was measured at 315-420 nm using a UV-VIS spectrophotometer (JASCO UV-Visible V570). For each test compound, a standard curve was generated by plotting concentrations of standard solutions and the corresponding absorbances. The absorbance of the sample of each test compound was then converted to solubility in water (μg/mL) using the corresponding standard curve.

[3] = Single-dose pharmacokinetic analysis in CD-1 mice; format: in vivo; settings: for Bioavailability: oral 20 mg/kg versus intravenous 2 mg/kg
Protocol: CD-1 mice were divided into two groups. The first group of mice (n=9) were used to assess the singe-dose pharmacokinetics of the test compounds after intravenous administration, and the second group of mice (n=9) were utilized to assess the singe-dose pharmacokinetics of the test compounds after oral administration. All of the mice were fasted from 4 hours before the administration of the test compounds until 4 hours after the administration of the test compounds.
The assessment for singe-dose pharmacokinetics of the test compounds after intravenous administration was performed as follows. The first group of mice were further randomly divided into three subgroups including compound 13a group (n=3), compound 14a group (n=3), and compound 1 group (n=3). Compounds 13a, 14a, 1 (in polyethylene glycol 400/ethanol/water (30/5/65, v/v/v)) were respectively administered to the mice in compound 13a group, compound 14a group, and compound 1 group at a dose of 2 mg/kg via tail vein injection. Blood samples (0.25 mL) were collected from the mice by virtue of cardiac puncture right before the intravenous administration, and at 2 min, 5 min, 15 min, 30 min, 1 hr, 1.5 hr, 2 hr, 4 hr, 6 hr, 9 hr, 24 hr, and 27 hr after the intravenous administration.
The assessment for singe-dose pharmacokinetics of the test compounds after oral administration was conducted as follows. The second group of mice were further randomly divided into three subgroups including compound 13a group (n=3), compound 14a group (n=3), and compound 1 group (n=3). Compounds 13a, 14a, 1 (in 0.5% methylcellulose) were respectively administered to the mice in compound 13a group, compound 14a group, and compound 1 group at a dose of 20 mg/kg via tube feeding. Blood samples (0.25 mL) were collected from the mice by virtue of cardiac puncture right before the oral administration, and at 15 min, 30 min, 1 hr, 1.5 hr, 2 hr, 4 hr, 6 hr, 9 hr, 24 hr, and 27 hr after the oral administration.
Each of the blood samples was placed in a 0.5 mL Microtainer® tube containing anticoagulant EDTA-K2, followed by mixing evenly. Centrifugation at 7000 g and 4° C. was conducted for 5 minutes. Plasma was collected and was mixed uniformly with a proper amount of acetonitrile, followed by centrifugation. The resultant supernatant was acquired, and was injected into a reversed-phase Biosil ODS column so as to determine the concentration of the respective test compound in plasma (i.e., the plasma concentration of the respective test compound) using a LC-MS/MS system (Waters 2795 LC and Micromass Quattro Ultima). The singe-dose pharmacokinetic parameters of the respective test compound were calculated from the obtained concentration of the respective test compound in plasma (i.e., the obtained plasma concentration of the respective compound) at different time points using WinNonlin Standard Program (version 3.1, Pharsight Corp.)

[4] = test system: MCF-7 (breast cancer cell); assay: MTT antiproliferative assay (cell growth %, GI50), MCF-7; format: cell-based; settings: for activity at 4000 µg/mL / activity at 20000 µg/mL / GI50: Homo sapiens, MCF7; for activity at 4000 µg/mL: 4 mg/ml; for activity at 4000 µg/mL / activity at 20000 µg/mL: 48 hours, MTT; for activity at 20000 µg/mL: 20 mg/ml; for SI MCF-7: GI50 MRC-5 / GI50 MCF-7; for GI50: mean±SD, read-out: GI50 MCF-7
Protocol: as §1, §2, §3

[5] = in vitro anticancer assay, earlier work of the applicants; cited from earlier work
[6] = test system: MRC-5 (human lung fibroblast cell); assay: GI50 determination on normal cell line MRC-5; format: cell-based; settings: MRC5, normal cell line, mean±SD, read-out: GI50 MRC-5
Protocol: as §1, §2, §3

[7] = test system: SF-268 (central nervous system carcinoma cell); assay: MTT antiproliferative assay (cell growth %, GI50), SF-268; format: cell-based; settings: for SI SF-268: GI50 MRC-5 / GI50 SF-268; for GI50: Homo sapiens, SF-268, mean±SD, read-out: GI50 SF-268
Protocol: as §1, §2, §3

[8] = intravenous administration, 2 mg/kg
[9] = intravenous administration, 2 mg/kg, extrapolated plasma concentration at 0 hr
[10] = intravenous administration, 2 mg/kg, from 0.5-1.5 hr (compd. 1) or 9-27 hr (13a, 14a)
[11] = oral administration, 20 mg/kg, from 2-6 hr (compd. 1), 2-24 hr (13a), 2-9 hr (14a)

Row | Structure (SMILES) | solubility [2] | GI50 [1] | Solubility in water [2] | GI50 [4] | GI50 [7] | activity at 4000 µg/mL [1] | activity at 20000 µg/mL [1] | activity at 4000 µg/mL [4] | activity at 20000 µg/mL [4] | Antiproliferative potency compared with amsacrine (m-AMSA) [5] | SI NCI-H460 [1] | GI50 [6] | SI MCF-7 [4] | SI SF-268 [7] | other results
1 | CC(=O)c1ccc(Nc2c3ccccc3nc3occc23)cc1 [Compound 1, 1-(4-(furo[2,3-b]quinolin-4-ylamino)phenyl)ethanone, reference compound] | 6 µg/mL (≈ 19.8 µM) |  |  |  |  | 33% | 30% | 69% | 61% | higher than that of amsacrine |  |  |  |  | Effect on tubulin (tubulin): binding to tubulin and inhibiting tubulin polymerization; AUC(0-inf) [3, 8]: 211 ng·h/mL; CL [3, 8]: 158 mL/min/kg; MRT [3, 8]: 0.1 h; Time after which compound was unable to be detected in plasma [3, 8]: 1.5 h; Vss [3, 8]: 1.2 L/kg; Vz [3, 8]: 4.1 L/kg; Cmax [3, 9]: 3064 ng/mL; t1/2 [3, 10]: 0.3^b hr; Bioavailability [3]: 2.1%; AUC(0-inf) ([3]; oral administration, 20 mg/kg): 45 ng·h/mL; Cmax ([3]; oral administration, 20 mg/kg): 21 ng/mL; MRT ([3]; oral administration, 20 mg/kg): 2.7 h; Time after which compound was unable to be detected in plasma ([3]; oral administration, 20 mg/kg): 6 h; Tmax ([3]; oral administration, 20 mg/kg): 0.3 h; t1/2 [3, 11]: 2.0^c hr
2 | C/C(=N\O)c1ccc(Nc2c3ccccc3nc3occc23)cc1 [Compound 2, (E)-1-(4-(furo[2,3-b]quinolin-4-ylamino)phenyl)ethanone oxime, reference compound] | 10 µg/mL (≈ 31.5 µM) |  |  |  |  | 27% | 21% | 64% | 58% | comparable to that of amsacrine |  |  |  |  | 
3 | CO/N=C(\C)c1ccc(Nc2c3ccccc3nc3occc23)cc1 [Compound 3, (E)-1-(4-(furo[2,3-b]quinolin-4-ylamino)phenyl)ethanone O-methyloxime, reference compound] | 8 µg/mL (≈ 24.1 µM) |  |  |  |  | 51% | 23% | 63% | 37% | comparable to that of amsacrine |  |  |  |  | 
4 | C/C(=N\OCCCN)c1ccc(Nc2c3ccccc3nc3occc23)cc1 [Compound 13c, (E)-1-(4-(furo[2,3-b]quinolin-4-ylamino)phenyl)ethanone O-3-aminopropyl oxime] |  | 7.08 ± 0.67 µM | 58 µg/mL (≈ 155 µM) | 11.52 ± 0.02 µM | 7.53 ± 0.41 µM | 22% | -2% | 52% | -3% |  | 6.07 | 43 ± 0.86 µM | 3.73 | 5.71 | 

Continued, in another order:

Row | solubility [2] | GI50 [1] | Solubility in water [2] | GI50 [4] | GI50 [7] | Structure (SMILES) | activity at 4000 µg/mL [1] | activity at 20000 µg/mL [1] | activity at 4000 µg/mL [4] | activity at 20000 µg/mL [4] | Antiproliferative potency compared with amsacrine (m-AMSA) [5] | SI NCI-H460 [1] | GI50 [6] | SI MCF-7 [4] | SI SF-268 [7] | other results
5 |  | 0.71 ± 0.02 µM | 25 µg/mL (≈ 63.3 µM) | 31.01 ± 0.03 µM | 9.14 ± 0.72 µM | C/C(=N\OCCN)c1ccc(Nc2c3ccccc3nc3occ(Cl)c23)cc1 [Compound 14a, (E)-1-(4-(3-Chlorofuro[2,3-b]quinolin-4-ylamino)phenyl)ethanone O-2-aminoethyl oxime] | 32% | -1% | 59% | -1% |  | 66.25 | 47 ± 1.21 µM | 1.52 | 5.15 | AUC(0-inf) [3, 8]: 409.8 ng·h/mL; CL [3, 8]: 81.3 mL/min/kg; MRT [3, 8]: 6.1 h; Vss [3, 8]: 30.0 L/kg; Vz [3, 8]: 103.8 L/kg; Cmax [3, 9]: 3601 ng/mL; t1/2 [3, 10]: 14.7^d hr; Bioavailability [3]: 5.9%; AUC(0-inf) ([3]; oral administration, 20 mg/kg): 242.6 ng·h/mL; Cmax ([3]; oral administration, 20 mg/kg): 114.3 ng/mL; MRT ([3]; oral administration, 20 mg/kg): 2.8 h; Time after which compound was unable to be detected in plasma ([3]; oral administration, 20 mg/kg): 9 h; Tmax ([3]; oral administration, 20 mg/kg): 1.0 h; t1/2 [3, 11]: 1.7^f hr
6 |  | 16.2 ± 0.36 µM | 36 µg/mL (≈ 88 µM) | 9.46 ± 0.23 µM | 32.5 ± 1.25 µM | C/C(=N\OCCCN)c1ccc(Nc2c3ccccc3nc3occ(Cl)c23)cc1 [Compound 14c, (E)-1-(4-(3-Chlorofuro[2,3-b]quinolin-4-ylamino)phenyl)ethanone O-3-aminopropyl oxime] | 28% | 0% | 46% | 0% |  | 2.90 | 47.1 ± 2.27 µM | 4.98 | 1.46 | 
7 |  | 3.96 ± 0.14 µM | 16 µg/mL (≈ 41 µM) | 36.23 ± 0.05 µM | 8.15 ± 0.44 µM | COc1ccc2c(Nc3ccc(/C(C)=N/OCCN)cc3)c3ccoc3nc2c1 [Compound 15a, (E)-1-(4-(7-Methoxyfuro[2,3-b]quinolin-4-ylamino)phenyl)ethanone O-2-aminoethyl oxime] | 14% | 11% | 71% | 8% |  | 11.39 | 45.11 ± 0.31 µM | 1.24 | 5.53 | 
8 |  | 3.86 ± 0.13 µM | 17 µg/mL (≈ 40 µM) | 36.93 ± 0.31 µM | 7.48 ± 0.366 µM | COc1ccc2c(Nc3ccc(/C(C)=N/OCCN)cc3)c3c(Cl)coc3nc2c1 [Compound 16a, (E)-1-(4-(3-Chloro-7-methoxyfuro[2,3-b]quinolin-4-ylamino)phenyl)ethanone O-2-aminoethyl oxime] | 13% | 3% | 66% | -1% |  | 12.30 | 47.46 ± 0.38 µM | 1.28 | 6.34 | 

— US8952033B2, “4-anilinofuro[2,3-b]quinoline derivatives, their preparation processes, and pharmaceutical compositions comprising the same” (Kaohsiung Medical University, priority 2011, dated 2015)
